In patent US8431593B2, “Heteroaryl amide derivatives” (H. Lundbeck A/S, priority 2006, dated 2013):
pIC50: −log10 of the molar value.

biological target: T1, P2X7 receptor (Homo sapiens, UniProt Q99572); assay: P2X7 calcium mobilization assay, high throughput, antagonist activity (Example 4A); format: cell-based; details: 50% decrease in the fluorescence response of cells exposed to 80 μM of 2′(3′)-O-(4-benzoyl-benzoyl)adenosine 5′-triphosphate; determined as in Example 4A; read-out: IC50
T1 construct: host or cells: SH-SY5Y
T1 sequence (Q99572 1-595): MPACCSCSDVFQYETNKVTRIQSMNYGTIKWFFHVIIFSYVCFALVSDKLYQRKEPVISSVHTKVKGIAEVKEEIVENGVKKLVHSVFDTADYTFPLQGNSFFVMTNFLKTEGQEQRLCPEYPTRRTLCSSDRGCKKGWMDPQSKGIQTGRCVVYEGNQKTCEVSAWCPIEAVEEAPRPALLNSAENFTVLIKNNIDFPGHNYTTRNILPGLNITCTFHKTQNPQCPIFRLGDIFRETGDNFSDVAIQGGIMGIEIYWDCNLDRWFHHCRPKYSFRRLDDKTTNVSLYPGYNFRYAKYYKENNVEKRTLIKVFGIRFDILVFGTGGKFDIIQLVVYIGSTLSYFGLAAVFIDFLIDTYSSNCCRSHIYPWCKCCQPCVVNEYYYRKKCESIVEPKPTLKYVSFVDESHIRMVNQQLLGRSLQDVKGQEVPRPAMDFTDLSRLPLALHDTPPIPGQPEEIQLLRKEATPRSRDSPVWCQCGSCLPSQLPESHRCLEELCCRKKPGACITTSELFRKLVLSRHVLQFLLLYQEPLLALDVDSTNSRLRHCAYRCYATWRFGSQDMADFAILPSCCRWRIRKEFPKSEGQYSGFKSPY
Outline: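 100,000 cells/well, plated day -1. Dye 1 h → rinse → compound 1 h, RT → FLIPR^TETRA Ca2+ mobilization. Max RFU minus mean negative control (no agonist); mean agonist-well max as positive control.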

pIC50, > 5.70:
CC(C)CC(CNC(=O)c1cccc2nc(CN3CC[C@@H](N)C3)cn12)c1cccnc1 (stereo partly drawn) [Compound 823, 2-{[(3R)-3-aminopyrrolidin-1-yl]methyl}-N-(4-methyl-2-pyridin-3-ylpentyl)imidazo[1,2-a]pyridine-5-carboxamide]
Cc1ccc(C2(CNC(=O)c3cccc4nc(CN5CC[C@@H](N)C5)cn34)CCCCC2)cn1 [Compound 824, 2-{[(3R)-3-aminopyrrolidin-1-yl]methyl}-N-{[1-(6-methylpyridin-3-yl)cyclohexyl]methyl} imidazo[1,2-a] pyridine-5-carboxamide]
CN(Cc1cccc(N)n1)C(=O)c1cn2c(C(=O)NCC34CC5CC(CC(C5)C3)C4)cccc2n1 [Compound 825, 5-N-(adamantan-1-ylmethyl)-2-N-[(6-aminopyridin-2-yl)methyl]-2-N-methylimidazo[1,2-a]pyridine-2,5-dicarboxamide]
O=C(NCC12CC3CC(CC(C3)C1)C2)c1cccc2nc(C(=O)n3ccc(N4CCNC4=O)n3)cn12 [Compound 826, N-(adamantan-1-ylmethyl)-2-{[3-(2-oxoimidazolidin-1-yl)-1H-pyrazol-1-yl]carbonyl}imidazo [1,2-a]pyridine-5-carboxamide]
O=C(NCC12CC3CC(CC(C3)C1)C2)c1cccc2nc(Cn3nnnc3N3CCOCC3)cn12 [Compound 828, N-(adamantan-1-ylmethyl)-2-[(5-morpholin-4-yl-1H-tetrazol-1-yl)methyl]imidazo [1,2-a]pyridine-5-carboxamide]
CC(C)CC(CNC(=O)c1cccc2nc(C(=O)N3CCC[C@@H](N)C3)cn12)c1ccc(Cl)cc1 (stereo partly drawn) [Compound 832, 2-{[(3R)-3-aminopiperidin-1-yl]carbonyl}-N-[2-(4-chlorophenyl)-4-methylpentyl] imidazo[1,2-a] pyridine-5-carboxamide]
CCOC(=O)C1(c2cn3c(C(=O)NCC45CC6CC(CC(C6)C4)C5)cccc3n2)CCCC1 [Compound 833, ethyl 1-{5-[(adamantan-1-ylmethyl)carbamoyl]imidazo[1,2-a]pyridin-2-yl} cyclopentane-carboxylate]
CC(C)CC(CNC(=O)c1cccc2nc(Cn3ccc(N)n3)cn12)c1ccc(Cl)cc1 (stereo not drawn) [Compound 834, 2-[(3-amino-1H-pyrazol-1-yl)methyl]-N-[2-(4-chlorophenyl)-4-methylpentyl] imidazo [1,2-a]pyridine-5-carboxamide]
CC(C)CC(CNC(=O)c1cccc2nc(CNc3cc[nH]n3)cn12)c1ccc(Cl)cc1 (stereo not drawn) [Compound 835, N-[2-(4-chlorophenyl)-4-methylpentyl]-2-[(1H-pyrazol-3-ylamino)methyl] imidazo [1,2-a]pyridine-5-carboxamide]
CC(C)CC(CNC(=O)c1cccc2nc(Cn3nccc3N)cn12)c1ccc(Cl)cc1 (stereo not drawn) [Compound 836, 2-[(5-amino-1H-pyrazol-1-yl)methyl]-N-[2-(4-chlorophenyl)-4-methylpentyl] imidazo [1,2-a]pyridine-5-carboxamide]
O=C(Cc1cn2c(C(=O)NCC34CC5CC(CC(C5)C3)C4)cccc2n1)N[C@@H]1CCNC1 [Compound 837, N-(adamantan-1-ylmethyl)-2-{2-oxo-2-[(3R)-pyrrolidin-3-ylamino]ethyl} imidazo [1,2-a]pyridine-5-carboxamide]
O=C(Cc1cn2c(C(=O)NCC34CC5CC(CC(C5)C3)C4)cccc2n1)N[C@@H]1CCCNC1 [Compound 838, N-(adamantan-1-ylmethyl)-2-{2-oxo-2-[(3R)-piperidin-3-ylamino]ethyl} imidazo[1,2-a] pyridine-5-carboxamide]
CC(C)CC(CNC(=O)c1cccc2nc(CC(=O)N3CCC[C@@H](N)C3)cn12)c1ccc(Cl)cc1 (stereo partly drawn) [Compound 839, 2-{2-[(3R)-3-aminopiperidin-1-yl]-2-oxoethyl}-N-[2-(4-chlorophenyl)-4-methylpentyl] imidazo[1,2-a] pyridine-5-carboxamide]
CCOC(=O)C(Cc1ccccc1Cl)c1cn2c(C(=O)NCC34CC5CC(CC(C5)C3)C4)cccc2n1 (stereo not drawn) [Compound 840, ethyl 2-{5-[(adamantan-1-ylmethyl)carbamoyl]imidazo[1,2-a]pyridin-2-yl}-3-(2-chlorophenyl) propanoate]
CCOC(=O)C(Cc1cccc(Cl)c1)c1cn2c(C(=O)NCC34CC5CC(CC(C5)C3)C4)cccc2n1 (stereo not drawn) [Compound 841, ethyl 2-{5-[(adamantan-1-ylmethyl)carbamoyl]imidazo[1,2-a]pyridin-2-yl}-3-(3-chlorophenyl) propanoate]
CCOC(=O)C(Cc1cccc(OC)c1)c1cn2c(C(=O)NCC34CC5CC(CC(C5)C3)C4)cccc2n1 (stereo not drawn) [Compound 842, ethyl 2-{5-[(adamantan-1-ylmethyl)carbamoyl]imidazo[1,2-a]pyridin-2-yl}-3-(3-methoxyphenyl) propanoate]
COc1cccc(CC(C(=O)O)c2cn3c(C(=O)NCC45CC6CC(CC(C6)C4)C5)cccc3n2)c1 (stereo not drawn) [Compound 843, 2-{5-[(adamantan-1-ylmethyl)carbamoyl]imidazo[1,2-a]pyridin-2-yl}-3-(3-methoxyphenyl) propanoic acid]
O=C(NCC12CC3CC(CC(C3)C1)C2)c1cccc2nc(C(Cc3ccccc3Cl)C(=O)O)cn12 (stereo not drawn) [Compound 844, 2-{5-[(adamantan-1-ylmethyl)carbamoyl]imidazo[1,2-a]pyridin-2-yl}-3-(2-chlorophenyl) propanoic acid]
O=C(NCC12CC3CC(CC(C3)C1)C2)c1cccc2nc(CC3(C(=O)O)CCOCC3)cn12 [Compound 847, 4-({5-[(adamantan-1-ylmethyl)carbamoyl]imidazo [1,2-a]pyridin-2-yl}methyl) tetrahydro-2H-pyran-4-carboxylic acid]
O=C(NCC12CC3CC(CC(C3)C1)C2)c1cccc2nc(C(Cc3cccc(Cl)c3)C(=O)O)cn12 (stereo not drawn) [Compound 848, 2-{5-[(adamantan-1-ylmethyl)carbamoyl]imidazo[1,2-a]pyridin-2-yl}-3-(3-chlorophenyl) propanoic acid]
CCOC(=O)C1(c2cn3c(C(=O)NCC45CC6CC(CC(C6)C4)C5)cccc3n2)CCCCC1 [Compound 849, ethyl 1-{5-[(adamantan-1-ylmethyl)carbamoyl]imidazo[1,2-a]pyridin-2-yl} cyclohexane-carboxylate]
O=C(NCC12CC3CC(CC(C3)C1)C2)c1cccc2nc(C3(C(=O)O)CCCC3)cn12 [Compound 850, 1-{5-[(adamantan-1-ylmethyl)carbamoyl]imidazo [1,2-a]pyridin-2-yl} cyclopentane-carboxylic acid]
O=C(NCC12CC3CC(CC(C3)C1)C2)c1cccc2nc(C3(C(=O)O)CCCCC3)cn12 [Compound 851, 1-{5-[(adamantan-1-ylmethyl)carbamoyl]imidazo [1,2-a]pyridin-2-yl} cyclohexane-carboxylic acid]
O=C(Cc1cn2c(C(=O)NCC34CC5CC(CC(C5)C3)C4)cccc2n1)N[C@H]1CCCNC1 [Compound 852, N-(adamantan-1-ylmethyl)-2-{2-oxo-2-[(3S)-piperidin-3-ylamino]ethyl} imidazo [1,2-a]pyridine-5-carboxamide]
O=C(NCC12CC3CC(CC(C3)C1)C2)c1cccc2nc(CSc3nnn[nH]3)cn12 [Compound 853, N-(adamantan-1-ylmethyl)-2-[(1H-tetrazol-5-ylthio)methyl] imidazo [1,2-a]pyridine-5-carboxamide]
CC(C)CC(CNC(=O)c1cccc2nc(C(=O)n3ccc(N)n3)cn12)c1ccc(Cl)cc1 (stereo not drawn) [Compound 854, 2-[(3-amino-1H-pyrazol-1-yl)carbonyl]-N-[2-(4-chlorophenyl)-4-methylpentyl] imidazo [1,2-a]pyridine-5-carboxamide]
O=C(NCC12CC3CC(CC(C3)C1)C2)c1cccc2nc(Cn3nnnc3CCO)cn12 [Compound 855, N-(adamantan-1-ylmethyl)-2-{[5-(2-hydroxyethyl)-1H-tetrazol-1-yl]methyl}imidazo [1,2-a]pyridine-5-carboxamide]
CC(O)CNC(=O)Cc1cn2c(C(=O)NCC3(c4cccnc4)CCCCC3)cccc2n1 (stereo not drawn) [Compound 857, 2-{2-[(2-hydroxypropyl)amino]-2-oxoethyl}-N-[(1-pyridin-3-ylcyclohexyl)methyl] imidazo[1,2-a] pyridine-5-carboxamide]
CC(O)CNC(=O)Cc1cn2c(C(=O)NCC3(c4ccc(Cl)cc4)CCCCC3)cccc2n1 (stereo not drawn) [Compound 858, N-{[1-(4-chlorophenyl)cyclohexyl]methyl}-2-{2-[(2-hydroxypropyl)amino]-2-oxoethyl} imidazo[1,2-a]pyridine-5-carboxamide]
O=C(Cc1cn2c(C(=O)NCC3(c4ccc(C(F)(F)F)cc4)CCCCC3)cccc2n1)NCC1CC1 [Compound 860, 2-{2-[(cyclopropylmethyl)amino]-2-oxoethyl}-N-({1-[4-(trifluoromethyl)phenyl]cyclohexyl}methyl) imidazo[1,2-a] pyridine-5-carboxamide]
